Results: patent publication US20130330322A1, “Methods of Treating Skin Aging With Toll-Like Receptor 7 Agonists” (Metabeauty, Inc., priority 2012, published 2013)

Legend:
[1] = tested on: normal photodamaged dermal or epidermal tissue; settings: topical application; cited from earlier work
aging skin [2] = assay: twelve-week clinical study, combined contemporaneous treatment with IRM and retinoid (2a); format: in vivo, human; settings: contemporaneous application
Method: On Day 0, each enrolled subject is supplied with a package of individually coded tubes of cream, labeled “Tube A” and “Tube B”. Tube A contains one of two formulations: 5% IRM+vehicle (carrier); or vehicle only (placebo); Tube B contains either 0.025% tretinoin in a cream formulation or vehicle only (placebo). The subjects apply Tube A to the arms and face, wait 5 minutes, and then apply the contents of Tube B over the same area. Labels are randomly assigned with records separately maintained identifying the formulation. Codes are not known to either the subjects or the investigator until the study is completed and the data analyzed. All subjects receive Cetaphil cleanser, moisturizer and sunscreen for daily use throughout the study. The first application of Tube A and B is done in the presence of the study coordinator to ensure proper application. Written directions are given to the subjects to apply the products at the same time of day every day and to apply Tube B five minutes after applying Tube A.
Study participants apply the study creams once daily for 12 weeks. […]
Skin firmness (elasticity) is assessed using a ballistometer. Skin retention of water/skin moisture content is assessed via impedance measurements on the cheek area of subjects using a Novameter. Transepidermal water loss is measured using a Tewameter. Sebum secretion is measured using a Sebometer and Sebutape.

aging skin [3] = assay: clinical study, combined day/night treatment with IRM and retinoid (2b); format: in vivo, human; settings: day/night application
Method: The above study is repeated except that the topical composition containing the IRM is applied in the morning and a topical composition containing tretinoin is applied at night. Standard 2-4 mm skin punch biopsies are taken at pre-identified sites (on subject's arms) on Day 0 and at the Week 12 visit. Subjects apply the assigned formulation in the presence of the investigator and return for a biopsy within 4-6 hours.

PBMC and pDC = assay: cytokine production by PBMC and plasmacytoid dendritic cells (RT-PCR, ELISA); format: cell-based, human; settings: added at 0.02% to 1% at the same time as TLR-7 agonists
Method: Cytokine production by plasmacytoid dendritic cells is measured using real-time RT-PCR on RNA collected from peripheral blood mononuclear cells (PBMC) including pDC (plasmacytoid dendritic cells).
An IRM (TLR-7 agonist) as described in one of the four embodiments of the present invention is introduced into a 24-well plate containing PBMC and pDC h Control wells are treated with DMSO. Cells are incubated for either one or two hours at 37° C. At the indicated times the cells are harvested by gently pipeting the cells into a 1.5 mL Eppendorf tube and centrifuging at 400 RCF for 10 min at 4° C. The supernatant is removed from the tube and the cells are lysed with 1 mL TRIzol (Life Technologies). […] RNA is quantified by absorbency (Abs260) and is reverse-transcribed using SuperScript First Strand Synthesis System for RT-PCR (Life Technologies). Primers for quantitative PCR are generated using Primer Express (PE Applied Biosystems). […] Quantitative PCR is performed on an ABI PRISM 7700 Sequence Detector. Amplified products are detected using SYBR Green PCR Master Mix (PE Biosystems). […] Relative quantitation of gene expression was performed using the DDCt method (User Bulletin #2, PE Applied Systems).
Cytokine and chemokine protein levels are measured from tissue culture supernatants or cell extracts using commercially-available enzyme-linked immuno assay (ELISA) kits. […]

| Structure (SMILES) | time until improved appearance (reduction in the appearance of fine lines and wrinkles) is visible [1] | Irritation (erythema and scaling) (aging skin [2]) | TEWL (Tewameter) (aging skin [2]) | Irritation (erythema and scaling) (aging skin [3]) | TEWL (Tewameter) (aging skin [3]) | amount of IFN-γ expressed by PBMC cells upon exposure to the TLR-7 agonist (PBMC and pDC) |
| --- | --- | --- | --- | --- | --- | --- |
| CC(C)Cn1cnc2c(N)nc3ccccc3c21 [Imiquimod, 1-isobutyl-1H-imidazo[4,5,-C]quinolin-4-amine] | ≤ 4 weeks | – | – | – | – | – |
| CC1=C(/C=C/C(C)=C/C=C/C(C)=C/C(=O)O)C(C)(C)CCC1 [tretinoin, all-trans retinoic acid] | – | at all time points but maximally at the 2 and 4 week time points | increased TEWL | at all time points but maximally at the 2 and 4 week time points | increased TEWL | lowers |
